Test results taken from PubChem BioAssay AID1117319 (Southern Research Institute, 2015).
Inconclusive results are not listed.

target: Virion infectivity factor (Human immunodeficiency virus type 1 group M subtype B (isolate BH10)) + Virion infectivity factor (Human immunodeficiency virus type 1 group M subtype B (isolate BRU/LAI)) + Virion infectivity factor (Human immunodeficiency virus type 1 group M subtype B (isolate PCV12)) + Virion infectivity factor (Human immunodeficiency virus type 1 group M subtype B (isolate HXB2)) + DNA dC->dU-editing enzyme APOBEC-3G (Homo sapiens) (UniProt P69720+P69721+P69722+P69723+Q9HC16); assay: inhibitors of Vif binding to APOBEC3G peptide, primary screen, biochemical, TR-FRET, GST-Vif 1-94, biotin-A3G peptide, dose response retest (AID 1117319);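 further: Vif residues 1-94 fused to GST binding biotinylated APOBEC3G peptide 110-148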

| SMILES | IC50 |
| --- | --- |
| Cc1ccc(Nc2cnn(C34CC5CC(CC(CC(=O)O)(C5)C3)C4)c(=O)c2Cl)cc1C | 96.6 µM |
| Cc1cc(-c2csc(NC(=O)c3cc4ccccc4o3)n2)c(C)n1C | 48.7 µM |
| CN(C)N1C(N)=C(C#N)C(c2cccnc2)C2=C1CCCC2=O (configuration not stated) | 11.4 µM |
| CCCCNC(=O)c1ccc2nc(-c3ccco3)c(-c3ccco3)nc2c1 | 1.19 µM |
| O=C(NN1C(=O)/C(=C/C=C/c2ccco2)SC1=S)c1ccncc1 | 2.37 µM |
| O=C(NCc1ccccn1)c1coc(=O)c(Br)c1 | 58.6 µM |
| CCOC(=O)c1sc2nc(CC(=O)OC)nc(NCc3ccco3)c2c1C | 2.44 µM |
| COC(=O)c1ccccc1-c1c2ccc(=N)cc-2oc2cc(N)ccc12 | 13.6 µM |
| CCN(CC)c1ccc(/C=N/n2c(C)cc(C)cc2=O)cc1 | 1.65 µM |
| CCCn1cnc2cc(NCc3ccccn3)ccc21 | 28.6 µM |
| O=C(COc1ccccc1Cl)c1ccc[nH]1 | 2.91 µM |
| O=C(O)c1cccc2c1NC(C(=O)O)C1CC(Sc3ccccc3[N+](=O)[O-])C(Cl)C21 (configuration not stated) | 0.5 µM |
| Cn1cccc1/C=C1/C(=O)NC(=S)N(Cc2ccc(F)cc2)C1=O | 1.24 µM |
| C[n+]1cccc2cccc([O-])c21 | 1.4 µM |
| Cc1ccc(S(=O)(=O)OCC(=O)Nc2ccc(C(=O)O)c(O)c2)cc1 | 64.1 µM |
| COc1ccc2c(c1)n([O-])c1c([n+]2=O)CCC1 | 5.16 µM |
| Cc1ccc(-n2nc(-c3ccc(N)cc3)cc2N)cc1 | 33.5 µM |
| Cc1nc2nc(C)c(CCC(=O)N3CCN(c4ccccc4)CC3)c(C)n2n1 | 59.5 µM |
| O=C(/C=C/c1ccc(O)c(O)c1)c1ccc(S(=O)(=O)N2CCCCCC2)cc1 | 2.29 µM |
| COc1cccc(CNC(=O)CCNS(=O)(=O)c2cccs2)c1 | 1.44 µM |
| Oc1ccc(/C=C/c2cc(O)cc(O)c2)cc1 | 25.3 µM |

| SMILES | IC50 |
| --- | --- |
| Cc1cccc(OCCn2cccc2/C=C2/C(=O)NC(=O)N(Cc3ccco3)C2=O)c1 | 4.18 µM |
| COc1ccc(Oc2nc(C)cc(C)c2C#N)cc1 | 59.3 µM |
| COc1ccc2c(c1)C(=O)c1ccccc1CO2 | 52.2 µM |
| O=C(NCCc1c[nH]c2ccccc12)c1ccc(S(=O)(=O)NCc2ccco2)cc1 | 33.3 µM |
| Cc1ccc(S(=O)(=O)Cn2nnnc2C(CC(C)C)N2CCN(C)CC2)cc1 (configuration not stated) | 9.85 µM |
| O=C1CC(c2ccco2)CC(O)=C1C=Nc1cc(Cl)ccc1Cl (configuration not stated) | 4.07 µM |
| O=C1/C(=C\c2ccco2)CCC/C1=C\c1ccco1 | 3.05 µM |
| O=C(O)/C(=C/c1ccco1)NC(=O)c1ccccc1 | 19.4 µM |
| COCCNC(=O)c1ccc(CS(=O)(=O)c2c(Cl)cccc2Cl)o1 | 39.9 µM |
| CNCc1ccccc1Sc1ccc(O)c(O)c1 | 2.64 µM |
| COc1ccc(NS(=O)(=O)c2cccc(Cl)c2Cl)cc1S(=O)(=O)N1CCCCC1 | 76.1 µM |
| O=C(NCCc1ccccc1)c1ccc2nc(-c3ccco3)c(-c3ccco3)nc2c1 | 3.01 µM |
| Cc1cc(C(=O)CCl)c(C)n1-c1c(C)n(C)n(-c2ccccc2)c1=O | 42.8 µM |
| COc1ccc(CN2C(=O)NC(=O)/C(=C/c3ccc([N+](=O)[O-])o3)C2=O)cc1 | 4.49 µM |
| CCOC(=O)C(=O)NCc1ccc(/C=C2/N=C(C)C(C(=O)OCC)=C2O)o1 | 6.18 µM |
| CCn1cc(CNC(=O)c2ccc(Cl)c([N+](=O)[O-])c2)c(C)n1 | 15.7 µM |
| CN1CCc2cccc3c2[C@@H]1Cc1ccc(O)c(O)c1-3 | 1.66 µM |
| CCCC1=NN2C(=N)/C(=C\c3ccc(SCc4ccco4)o3)C(=O)N=C2S1 | 8.14 µM |
| COc1cc(C(=O)NNC(=S)NCc2ccco2)cc(OC)c1OC | 63.5 µM |
| CC[n+]1c(/C=C2\C=C(C)CC(C)(C)C2)sc2ccccc21 | 57.9 µM |
| COc1ccc(N2CCN(c3nc4ccccc4nc3NS(=O)(=O)c3ccccc3)CC2)cc1 | 66.6 µM |

| SMILES | IC50 |
| --- | --- |
| CCc1ccc(S(=O)(=O)/N=C2\C=CC(=O)c3ccccc32)cc1 | 8.1 µM |
| O=C(NC1CC1)c1cc(-c2ccco2)nc2ccccc12 | 2.53 µM |
| Oc1ccc(NCc2ccccc2OCc2ccccc2)cc1 | 3.97 µM |
| C/C(=N\Nc1ccc(Cl)c(C(=O)O)c1)c1ccc[nH]1 | 8.87 µM |
| O=C1CCCC2=C1C(c1ccco1)Nc1ccc3ccccc3c12 (configuration not stated) | 4.21 µM |
| COc1cc(C2C(C#N)=C(N)N(c3cccnc3)C3=C2C(=O)CCC3)ccc1O (configuration not stated) | 13.6 µM |
| CC(=O)Nc1cccc(Oc2ncnc3scc(-c4ccccc4)c23)c1 | 16.8 µM |
| CCC1=NN2C(=N)/C(=C\c3cccn3-c3cccc(Cl)c3)C(=O)N=C2S1 | 94.9 µM |
| CCOC(=O)C1=C(C)N=C2SC(C(=O)OC)=CC(=O)N2C1c1cc(OC)c(OC)c(OC)c1 (configuration not stated) | 11 µM |
| Cc1cccc2c1c1ccc3c(c1n2C)C(=O)C=CC3=O | 7.63 µM |
| CC(=O)N1CCN(c2ccc(NCc3ccc(C)s3)cc2)CC1 | 3.13 µM |
| CCC(Cc1ccccc1)NC(=O)C1CCN(S(=O)(=O)c2c(C)noc2C)CC1 (configuration not stated) | 91 µM |
| CC(=O)OCCCNc1cc(Sc2nc3ccccc3s2)c2nonc2c1[N+](=O)[O-] | 53.1 µM |
| CCNc1ccc(Br)cc(C(=O)/C=C/c2ccc3c(c2)OCO3)c1=O | 24.7 µM |
| CN(C)c1ccc(N/C=C/C(=O)c2ccco2)cc1 | 30.8 µM |
| COc1ccccc1-n1c(SCC(=O)NCc2ccc3c(c2)OCO3)nc2cc([N+](=O)[O-])ccc21 | 22.7 µM |
| O=C(CCN1CCN(c2ccccc2)CC1)N/N=C/c1ccc(O)c(O)c1O | 1.02 µM |
| O=C1/C(=C/c2ccco2)SC(=S)N1c1cccnc1 | 1.49 µM |
| CCOC(=O)C(C(=O)OCC)c1cc(Br)c2noc3c2c1C(=O)c1ccccc1-3 | 2.45 µM |
| Cc1ccc2c(c1)c1ccc3c(c1n2C)C(=O)C=CC3=O | 3.94 µM |
| COc1cccc2c1NC(C(=O)O)C1CC=CC21 (configuration not stated) | < 0.398 µM |

| SMILES | IC50 |
| --- | --- |
| c1ccc2c(c1)CCCN2Cc1nnc2n1CCCCC2 | 31.5 µM |
| Cc1cc(-c2nc3c4c5c(sc4[nH]c(=O)n3n2)CCC5)c(C)o1 | 0.69 µM |
| CN1C(=O)/C(=C/c2cccn2-c2ccc3ccccc3c2)C(=O)NC1=S | < 8.17 µM |
| O=C(Nc1ccc2nc(-c3ccco3)c(-c3ccco3)nc2c1)NC1CC1 | 0.3 µM |
| Nc1cc(N)c(OCC(F)(F)F)cc1OCC(F)(F)F | 9.47 µM |
| Cc1cc(Cl)cc2c1NC(=O)[C@]21[C@@H]2C(=O)N(Cc3ccccc3)C(=O)[C@@H]2[C@@H]2CCCN21 | 38 µM |
| COC(=O)C1C(O)C(C)C(O)C(C)(O)/C=C\C=C(/C)C(=O)Nc2c(C)c(OC(C)=O)c3c(c2O)C(=O)C(C)=C2OCOC(=C23)/C(C)=C/C(C)(O)C(O)C(C)C1O (configuration not stated) | 13.6 µM |
| Cc1ccc(NC(=O)CCCCCC2NC(=O)NC2C)cc1 (configuration not stated) | 0.71 µM |
| CCOC(=O)c1cc([N+](=O)[O-])cc([N+](=O)[O-])c1Sc1ncnc2nc[nH]c12 | 69.6 µM |
| O=[N+]([O-])c1ccc2c([N+](=O)[O-])ccc3c2c1CC3 | 12.2 µM |
| CNc1ccc(Br)cc(C(=O)/C=C/c2ccc(OC)cc2)c1=O | 3.53 µM |
| Cc1cc(O)c(-c2cc(O)c(C)cc2O)cc1O | 8.44 µM |
| Cc1ccc(-n2c(-c3cc(-c4ccco4)[nH]n3)n[nH]c2=S)c(Br)c1 | 6.39 µM |
| CC(=O)C1=C(C)NC(C)=C(C(C)=O)C1c1cccs1 | 23.5 µM |
| Cc1ccc(N(CC(=O)NCCSCc2ccco2)S(=O)(=O)c2ccc(F)cc2)cc1 | 10.9 µM |
| COc1cccc(C=Nc2cc(C(C)C)c(O)cc2C)c1O | 34.2 µM |
| O=C(O)CC(Cn1cnnn1)c1ccccc1 (configuration not stated) | 58.8 µM |
| C=CCSc1nnc(NC(=O)CSc2nnc(C)s2)s1 | 90.6 µM |
| NC(=O)/C(=C/c1ccco1)C(N)=S | 9.35 µM |
